Data as given in publication PMC12703733, “Probing Guanidino Pendant or Bridged Groups in Cyclic Antimicrobial Peptides Derived from Temporin L: A Strategy to Improve Efficacy against Gram-Negative Bacteria” (Journal of Medicinal Chemistry, 2025).
Read-outs that look alike come from different tables or passages of the source. Bridge positions count the residues as written; N and C are the ends. Square brackets hold non-standard residues; d marks the D form. Peptide text beside a SMILES is read from it. * marks the point of attachment. Phe(4-guanidino) = N=C(N)Nc1ccc(C[C@H](N)C(=O)O)cc1; Butanoyl(4-guanidino) = N=C(N)NCCCC(=O)*; Propanoyl(3-guanidino) = N=C(N)NCCC(=O)*; X1 = N=C(N)N[C@@H](Cc1ccccc1)C(=O)*

What was measured:
E. coli D21 = assay: microbe, parasite or virus in culture; type: cell-based
Description: (§1) Bacterial strains used in this study were the Gram-positive S. aureus ATCC 25923, S. epidermidis ATCC 12228, B. megaterium BM11, S. [NT] 27591, E. faecalis ATCC 29212 and the Gram-negative E. coli ATCC 25922, P. aeruginosa ATCC 27853, A. baumannii ATCC 19606, E. coli D21 and P. aeruginosa PAO1. […] Bacterial cells in the mid log phase were diluted in Muller Hinton (MH) at a concentration of 2 × 10^6 cell/mL. […] Ciprofloxacin was used as antibiotic control. The plate was then incubated at 37 °C. MICs were obtained from three identical readings of four independent experiments.

S. agalactiae ATCC 27591 = assay: microbe, parasite or virus in culture; type: cell-based
Description: as §1

A. baumannii ATCC 19606 = assay: microbe, parasite or virus in culture; type: cell-based
Description: as §1

P. aeruginosa ATCC 27853 = assay: microbe, parasite or virus in culture; type: cell-based
Description: as §1

E. faecalis ATCC 29212 = assay: microbe, parasite or virus in culture; type: cell-based
Description: as §1

P. aeruginosa PAO1 = assay: microbe, parasite or virus in culture; type: cell-based
Description: as §1

E. coli ATCC 25922 = assay: microbe, parasite or virus in culture; type: cell-based
Description: as §1

B. megaterium BM11 = assay: microbe, parasite or virus in culture; type: cell-based
Description: as §1

S. aureus ATCC 25923 = assay: microbe, parasite or virus in culture; type: cell-based
Description: as §1

[1] = test system: S. epidermidis ATCC 12228; assay: microbe, parasite or virus in culture; type: cell-based
Description: as §1

circular dichroism = settings: water; pH ns; 25 °C; 150 uM
[2] = type: cell-based, human; settings: human; for viability at 2 h, 3.12 µM / viability at 2 h, 6.25 µM / viability at 2 h, 12.5 µM / viability at 2 h, 25 µM / viability at 2 h, 50 µM / viability at 2 h, 100 µM / viability at 24 h, 3.12 µM / viability at 24 h, 6.25 µM / viability at 24 h, 12.5 µM / viability at 24 h, 25 µM / viability at 24 h, 50 µM / viability at 24 h, 100 µM: Cell viability (%)
Description: (§2) For the evaluation of peptides’ cytotoxicity, the human immortalized keratinocytes (HaCaT cells), purchased from AddexBio (San Diego, CA, USA), and BEAS-2B were used. HaCaT cells were cultured in Dulbecco’s modified Eagle’s medium supplemented with 4 mM glutamine (DMEM), 10% heat-inactivated fetal bovine serum (FBS), and 0.1 mg/mL of penicillin and streptomycin, at 37 °C and 5% CO2. BEAS-2B cells were cultured in RPMI, supplemented with 2 mM glutamine (DMEM), 10% heat-inactivated fetal bovine serum (FBS), 1 mM sodium pyruvate, and 0.1 mg/mL of penicillin and streptomycin, at 37 °C and 5% CO2. Cytotoxicity was tested in vitro using a colorimetric assay that relies on the intracellular reduction of the yellow 3-(4,5-dimethylthiazol-2-yl)-2,5-diphenyltetrazolium bromide salt (MTT) by mitochondrial dehydrogenases of metabolically active cells in formazan crystals (purple). About 4 × 10^4 HaCaT and BEAS-2B cells, suspended in DMEM supplemented with 2% FBS, were plated in triplicate wells of a 96-well microtiter plate. The plate was incubated overnight at 37 °C and 5% CO2. Then, the cells were treated with different concentrations of the peptide (from 100 to 3.12 μM) in a fresh serum-free medium for 2 h and for a longer time (24 h). Following peptide treatment, the medium was removed, and MTT (0.5 mg/mL) solution in Hank’s buffer (136 mM NaCl, 4.2 mM Na2HPO4, 4.4 mM KH2PO4, 5.4 mM KCl, 4.1 mM NaHCO3, pH 7.2, supplemented with 20 mM D-glucose) was added to each well of the plate, that was then incubated for 4 h at 37 °C and 5% CO2. The purple formazan crystals were dissolved using acidified 2-propanol and a microplate reader (Infinite M200; Tecan, Salzburg, Austria) was used to measure the absorbance of each well at 570 nm. The percentage of cell viability was calculated compared to the control, which consisted of cells without any peptide treatment (corresponding to 100% viability) and all data represent the mean of three independent experiments ± SEM.

[3] = test system: human keratinocytes (HaCaT cells); type: cell-based
Description: as §2

Row | MIC (E. coli D21; D21) [µM] | MIC (S. agalactiae ATCC 27591; ATCC 27591) [µM] | MIC (A. baumannii ATCC 19606; ATCC 19606) [µM] | MIC (P. aeruginosa ATCC 27853; ATCC 27853) [µM] | MIC (E. faecalis ATCC 29212; ATCC 29212) [µM] | MIC (E. coli ATCC 25922; ATCC 25922) [µM] | MIC (B. megaterium BM11; BM11) [µM] | MIC (S. aureus ATCC 25923; ATCC 25923) [µM] | MIC ([1]; ATCC 12228) [µM] | SMILES | helicity (circular dichroism) [%] | viability at 2 h, 3.12 µM [2] [%] | viability at 2 h, 6.25 µM [2] [%] | viability at 2 h, 12.5 µM [2] [%] | viability at 2 h, 25 µM [2] [%] | viability at 2 h, 50 µM [2] [%] | viability at 2 h, 100 µM [2] [%] | viability at 24 h, 3.12 µM [2] [%] | viability at 24 h, 6.25 µM [2] [%] | viability at 24 h, 12.5 µM [2] [%] | viability at 24 h, 25 µM [2] [%] | other results
1 |  |  |  |  |  |  |  |  |  | O=C(O)c1cn(C2CC2)c2cc(N3CCNCC3)c(F)cc2c1=O [Ciprofloxacin, reference compound] |  |  |  |  |  |  |  |  |  |  |  | MIC (E. coli D21; Escherichia coli, E. coli D21, antibiotic control, read-out: MIC): 0.01 µg/mL; MIC (S. agalactiae ATCC 27591; Streptococcus agalactiae, ATCC27591, S. agalactiae ATCC 27591, antibiotic control, read-out: MIC): 0.5 µg/mL; MIC (A. baumannii ATCC 19606; Acinetobacter baumannii, ATCC19606, A. baumannii ATCC 19606, antibiotic control, read-out: MIC): 1 µg/mL; MIC (P. aeruginosa ATCC 27853; Pseudomonas aeruginosa, ATCC27853, P. aeruginosa ATCC 27853, antibiotic control, read-out: MIC): 0.5 µg/mL; MIC (E. faecalis ATCC 29212; Enterococcus faecalis, ATCC29212, E. faecalis ATCC 29212, antibiotic control, read-out: MIC): 0.5 µg/mL; MIC (P. aeruginosa PAO1; Pseudomonas aeruginosa, P. aeruginosa PAO1, antibiotic control, read-out: MIC): 0.12 µg/mL; MIC (E. coli ATCC 25922; Escherichia coli, ATCC25922, E. coli ATCC 25922, antibiotic control, read-out: MIC): 0.01 µg/mL; MIC (B. megaterium BM11; Priestia megaterium, B. megaterium BM11, antibiotic control, read-out: MIC): 0.12 µg/mL; MIC (S. aureus ATCC 25923; Staphylococcus aureus, ATCC25923, S. aureus ATCC 25923, antibiotic control, read-out: MIC): 0.5 µg/mL; MIC ([1]; Staphylococcus epidermidis, ATCC12228, S. epidermidis ATCC 12228, antibiotic control, read-out: MIC): 0.25 µg/mL
2 | 6.25 | 3.12 | 3.12 | 100 | 25 | 6.25 | 0.78 | 6.25 | 3.12 | CC[C@H](C)[C@H](NC(=O)[C@H](CCCNC(=N)N)NC(=O)[C@H]1CCC(=O)NCCCC[C@H](NC(=O)[C@H](Cc2ccccc2)NC(=O)[C@H](Cc2c[nH]c3ccccc23)NC(=O)[C@@H]2CCCN2C(=O)[C@@H](NC(=O)[C@H](Cc2ccccc2)NC(=N)N)C(C)C)C(=O)N[C@@H](CCCCN)C(=O)N[C@@H](Cc2ccccc2)C(=O)N[C@H](CC(C)C)C(=O)N1)C(=O)N[C@@H](CC(C)C)C(N)=O [Peptide 3, guanidino-FVPWF[KKFle]RIL] (X1-VPWFKKF[dL][dE]RIL-NH2; lactam 5-9) | 1 | 126 | 137 | 125 | 104 | 52 | 5 | 93 ± 9 | 105 ± 2 | 107 ± 8 | 86 ± 5 | MIC (P. aeruginosa PAO1; PAO1): 50 µM; CC50 at 24 h [2]: 38.6 µM; viability at 24 h, 50 µM [2]: 29 ± 2%; viability at 24 h, 100 µM [2]: 4 ± 1%
3 | 6.25 | 1.56 | 3.12 | 25 | 6.25 | 3.12 | 0.78 | 3.12 | 1.56 | CC[C@H](C)[C@H](NC(=O)[C@H](CCCNC(=N)N)NC(=O)[C@H]1CCC(=O)NCCCC[C@H](NC(=O)[C@H](Cc2ccccc2)NC(=O)[C@H](Cc2c[nH]c3ccccc23)NC(=O)[C@@H]2CCCN2C(=O)[C@@H](NC(=O)[C@H](Cc2ccccc2)NC(=O)CCNC(=N)N)C(C)C)C(=O)N[C@@H](CCCCN)C(=O)N[C@@H](Cc2ccccc2)C(=O)N[C@H](CC(C)C)C(=O)N1)C(=O)N[C@@H](CC(C)C)C(N)=O [Peptide 4, guanidino-βAla-FVPWF[KKFle]RIL] ({Propanoyl(3-guanidino)}-FVPWFKKF[dL][dE]RIL-NH2; lactam 6-10) | 12 | 100 | 100 | 100 | 47 | 7 | 8 | 98 ± 1 | 93 ± 2 | 88 ± 4 | 21 ± 3 | MIC (P. aeruginosa PAO1; PAO1): 25 µM; CC50 at 24 h [2]: 19.4 µM; viability at 24 h, 50 µM [2]: 0%; viability at 24 h, 100 µM [2]: 0%
4 | 6.25 | 1.56 | 3.12 | 50 | 6.25 | 6.25 | 0.78 | 3.12 | 3.12 | CC[C@H](C)[C@H](NC(=O)[C@H](CCCNC(=N)N)NC(=O)[C@H]1CCC(=O)NCCCC[C@H](NC(=O)[C@H](Cc2ccccc2)NC(=O)[C@H](Cc2c[nH]c3ccccc23)NC(=O)[C@@H]2CCCN2C(=O)[C@@H](NC(=O)[C@H](Cc2ccccc2)NC(=O)CCCNC(=N)N)C(C)C)C(=O)N[C@@H](CCCCN)C(=O)N[C@@H](Cc2ccccc2)C(=O)N[C@H](CC(C)C)C(=O)N1)C(=O)N[C@@H](CC(C)C)C(N)=O [Peptide 5, guanidino-GABA-FVPWF[KKFle]RIL] ({Butanoyl(4-guanidino)}-FVPWFKKF[dL][dE]RIL-NH2; lactam 6-10) | 16 | 128 | 126 | 128 | 76 | 18 | 4 | 116 ± 7 | 137 ± 15 | 147 ± 15 | 58 ± 6 | MIC (P. aeruginosa PAO1; PAO1): 25 µM; CC50 at 24 h [2]: 24.6 µM; viability at 24 h, 50 µM [2]: 1 ± 1%; viability at 24 h, 100 µM [2]: 1 ± 1%
5 | 6.25 | 3.12 | 6.25 | 50 | 25 | 12.5 | 0.78 | 25 | 6.25 | CC[C@H](C)[C@H](NC(=O)[C@H](CCCNC(=N)N)NC(=O)[C@H]1CCC(=O)NCCCC[C@H](NC(=O)[C@H](Cc2ccc(NC(=N)N)cc2)NC(=O)[C@H](Cc2c[nH]c3ccccc23)NC(=O)[C@@H]2CCCN2C(=O)[C@@H](NC(=O)[C@@H](N)Cc2ccccc2)C(C)C)C(=O)N[C@@H](CCCCN)C(=O)N[C@@H](Cc2ccccc2)C(=O)N[C@H](CC(C)C)C(=O)N1)C(=O)N[C@@H](CC(C)C)C(N)=O [Peptide 8, FVPW(p-guanidino)F[KKFle]RIL] (H-FVPW[Phe(4-guanidino)]KKF[dL][dE]RIL-NH2; lactam 6-10) | 7 | 111 | 112 | 115 | 110 | 92 | 63 | 101 ± 4 | 105 ± 6 | 110 ± 3 | 124 ± 1 | MIC (P. aeruginosa PAO1; PAO1): 25 µM; viability at 24 h, 100 µM [2]: 58 ± 9%
6 | 6.25 | 1.56 | 1.56 | 50 | 6.25 | 6.25 | 0.39 | 6.25 | 1.56 | CC[C@H](C)[C@H](NC(=O)[C@H](CCCNC(=N)N)NC(=O)[C@@H]1CCCNC(=N)NCCC[C@H](NC(=O)[C@H](Cc2ccccc2)NC(=O)[C@H](Cc2c[nH]c3ccccc23)NC(=O)[C@@H]2CCCN2C(=O)[C@@H](NC(=O)[C@@H](N)Cc2ccccc2)C(C)C)C(=O)N[C@@H](CCCCN)C(=O)N[C@@H](Cc2ccccc2)C(=O)N[C@H](CC(C)C)C(=O)N1)C(=O)N[C@@H](CC(C)C)C(N)=O [Peptide 13, FVPWF{OrnKFlOrn}RIL] | 10 | 107 | 104 | 76 | 31 | 7 | 2 | 103 ± 2 | 103 ± 3 | 97 ± 2 | 22 ± 2 | CC50 at 24 h [2]: 19.7 µM; viability at 24 h, 50 µM [2]: 2 ± 1%; viability at 24 h, 100 µM [2]: 3 ± 1%; cytotoxicity (in words) [3]: Low cytotoxicity (up to 25 μM)
